Experimental data reported in US20240139190A1, “NOVEL ANTIPARASITIC COMPOUNDS AND METHODS” (The Board of Regents of The University of Texas System, priority 2019, published 2024).
“Also recorded” adds a separate entry of the source. Where two headings read alike, the source gives them in different places.

How the values were obtained:
[1] = system: L. amazonensis axenic amastigotes; test: alamarBlue viability / concentration-response assay, axenic amastigotes; format: cell-based, Leishmania amazonensis; details: 72 h, axenic amastigotes, read-out: EC50^72 h against L. amazonensis axenic amastigotes
Description: (§1) Leishmania amazonensis axenic amastigotes (100 μL, 2×10^6 cells/mL) were added to 96-multiwell plates containing 100 μL of amastigote culture medium with an appropriate compound dilution series. 0.1% DMSO (no drug) served as a positive control (100%), and 5 μM amphotericin B served as a negative growth control (0%). Only internal wells were used to minimize edge effects from evaporation. Axenic amastigotes were incubated at 32° C. with a compound/drug for 72 h prior to measurement. Similarly, the cytotoxicity of each compound was determined against RAW 264.7 cells and HepG2 cell lines, following 72 h incubation at 37° C. (promastigotes at 26° C.).
10% alamarBlue® (Thermo Fisher Scientific) was used to measure the growth of both parasite and mammalian cells. Conversion from a blue oxidized state to a pink reduced state was assessed visually at 6 hr. The fluorescence signal was measured with a BioTek Synergy H1 plate reader (530 nm excitation, 570 nm emission). For bioluminescence assays using L. amazonensisluc, relative luminescence units (RLU) were measured using Britelite Plus (PerkinElmer, USA). Luminescence produced by this luciferase reaction is proportional to the amount of luciferase-expressing, viable L. amazonensisluc. Following five-minute incubation at room temperature, the luminescence was measured with a BioTek Synergy H1 plate reader.
All experiments were conducted as three technical triplicates on the same plate, with at least three independent biological repeats of each plate performed. For all assays, percent growth was expressed as a proportion of the untreated (positive) control (i.e. 100%) and plotted against drug/compound concentration. The concentration was then log10 transformed and EC50 values were determined using nonlinear regression (sigmoidal dose-response/variable slope equation) in GraphPad Prism v5.0 (GraphPad Software, Inc., San Diego, CA).
To identify antileishmanial compounds, a microplate-based alamarBlue® assay was used to quickly triage the 400 drug-like compounds available in the MMV Pathogen Box collection. […] A three-step process was used to screen the Pathogen Box: 1) identify hits against axenic amastigotes, 2) confirm the inhibitory concentrations of these hits against axenic amastigotes, 3) evaluate hits for potency against intracellular parasites using fluorescence and bioluminescence-based intracellular assays. The MMV Pathogen Box resource was tested at two concentrations (5 μM and 1 μM, 72 h endpoint) on axenic amastigotes.
Hits were defined as compounds that, at a concentration of 1 μM, decreased the relative fluorescence intensity signal to ≤70% of that produced by parasites incubated in vehicle (0.06% DMSO) only (FIG. 9).

[2] = system: intracellular L. amazonensis amastigotes; test: Intracellular washout assay (LD50); format: cell-based, Leishmania amazonensis
Description: Intracellular LD50s were measured. Briefly, RAW 264.7 cells were seeded to 96-multiwell plates at a density of 2×10^5 cells/mL (200 μL) and starved overnight at 37° C. The cells were infected with metacyclic promastigotes at a Multiplicity of Infection (MOI) of 15 and incubated for another 24 h at 37° C. The plates containing infected RAW 264.7 cells/BM primary M #s were washed five times with serum-free DMEM. Serially diluted compounds were added, and plates were incubated at 37° C. for 72 hrs. Wells were washed five times with DMEM, and the RAW 264.7 cells were lysed with 100 μL of 2 mg/mL saponin in DMEM for 5 min at room temperature, and further lysis was stopped with 100% FBS. After centrifugation, 200 μL acidic promastigotes media was replaced, plates were incubated at 26° C. for 96 h. Fluorescence intensity (alamarBlue®) was measured as described above.
All routine in vitro quantification of antileishmanial drug potency is quantification of “cytostatic” potency. […] Therefore, the cytocidal action of MMV676477 was quantified by obtaining an LD50 at 72 h (a Lethal Dose that kills 50% of the bulk population of the parasites relative to untreated control) and compared it to the known cytocidal drug amphotericin. An intracellular washout assay was employed. […] The ratio of LD50:EC50 was calculated for MMV676477 and amphotericin. Lower ratios indicate that the LD50 is similar to the EC50 value, meaning that the estimated EC50 values represent killing of the parasites rather than simple growth inhibition.

[3] = system: L. donovani axenic amastigotes; test: alamarBlue assay, L. donovani axenic amastigotes; format: cell-based, Leishmania donovani
Description: For other parasites, L. donovani, strain MHOM/SD/62/1S-C12D, was grown as previously described. Plasmodium falciparum parasites of the 3D7 strain were cultured in RPMI 1640 medium supplemented with 37.5 mM HEPES, 10 mM D-glucose, 2 mM L-glutamine, 100 μM hypoxanthine, 25 μg/mL gentamicin, 4% (v/v) human serum and 0.25% (v/v) Albumax II, at a 2% haematocrit in an atmosphere of 1% 02, 3% CO2 and 96% N2. Staging and parasitemia of the in vitro culture were assessed by light microscopy of Giemsa-stained thin blood smears.
as §1, with “Axenic amastigotes were incubated at 32° C. with a compound/drug for 72 h prior to measurement.” left out, “(promastigotes at 26° C.).” left out
MMV676477 was tested against several other parasites: the axenic amastigotes of Leishmania donovani and Leishmania tarentolae, blood-stage Plasmodium falciparum, and Trypanosoma brucei. The compound's activity was measured using alamarBlue®, Malaria SYBR green I fluorescence (MSF) and CellTiter-Glo® luminescent assays. […]

[4] = system: blood-stage Trypanosoma brucei; test: CellTiter-Glo luminescent assay; format: cell-based
Description: The parasites were synchronized using sequential sorbitol lysis treatment, with experiments carried out at least one intra-erythrocytic cycle later. T. brucei single marker (SM) cells were maintained at log phase growth (<1.5×10^6 cells/mL) in HMI-19 media supplemented with 10% FBS (Gibco) and 2.5 μg/mL G418 (Life Technologies) at 37° C. and 5% CO2.
Compounds were tested against the blood-stage Trypanosoma brucei (48 hr endpoint) and intra-erythrocytic asexual stages Plasmodium falciparum (3D7) using CellTiter-Glo® luminescent and Malaria SYBR green I fluorescence (MSF) assays, respectively. Similar methodology will be used for future experiments.
MMV676477 was tested against several other parasites: the axenic amastigotes of Leishmania donovani and Leishmania tarentolae, blood-stage Plasmodium falciparum, and Trypanosoma brucei. The compound's activity was measured using alamarBlue®, Malaria SYBR green I fluorescence (MSF) and CellTiter-Glo® luminescent assays. […] In addition, MMV676477 has also been recently reported as having potent activity against Neospora caninum, Cryptosporidium parvum, Toxoplasma gondii, and Entamoeba histolytica.

Which results are given for CCc1c(C)nc(-n2nc(C)cc2NC(=O)c2ccccc2SC)[nH]c1=O [MMV676477, N-(1-(5-Ethyl-4-methyl-6-oxo-1,6-dihydropyrimidin-2-yl)-3-methyl-1H-pyrazol-5-yl)-2-(methylthio)benzamide]?
EC50 [1]: 78 nM; EC50 ([1]; Leishmania amazonensis): 79 nM; LD50/EC50 ratio ([2]; intracellular amastigotes): 1.2; LD50 72 h ([2]; intracellular washout, 72 h): 620 nM; activity against L. donovani axenic amastigotes (in words) [3]: broad activity; activity against Trypanosoma brucei (in words) [4]: nanomolar-range cytocidal potency; also recorded: broad activity; also recorded: nanomolar concentrations
